The results in this text go back to patent US20230322753A1, “HETEROARYL DERIVATIVE, METHOD FOR PREPARATION THEREOF, AND PHARMACEUTICAL COMPOSITION COMPRISING SAME AS ACTIVE INGREDIENT” (VORONOI INC., priority 2020, published 2023).

The test has as its system Ba/F3 cells expressing EGFR Exon20 ins NPH. The test is described as follows: Ba/F3 proliferation suppression activity, cells expressing EGFR Exon20 ins NPH. The format is cell-based. Conditions: Mus musculus, BaF3, 72 hours, CellTiter-Glo. The procedure: A following experiment was carried out to evaluate the suppression activity of the compounds according to the present invention against the proliferation of Ba/F3 which expresses EGFR mutations.
For the Ba/F3 cells, a RPMI-1640 medium containing 10% FBS and 5 ng/ml IL-3 (R&D Systems) was used. The transduced Ba/F3 cells were cultured in a medium, which is same as the above medium, but 1 ug/ml puromycin (Invitrogen) was additionally added to.
24 hours before the treatment of the cells with the compounds, 3000 to 5000 cells were distributed into each well of a white clear bottom 96 well plate (Corning). The compounds were diluted in a dimethyl sulfoxide (e.g. dilution ratio of 3:1 and total 12 concentrations) and then injected by 0.5 ul respectively, such that a final concentration amounted to 0.3 nM to 50 uM. 72 hours after the treatment with the compounds, the measurement of live cells was made in such way that these cells were stored for 10 minutes at a room temperature using a CellTiter-Glo luminescent cell-viability reagent (Promega) and then their luminescence intensities were measured using a reader (i.e. Synergy Neo, Biotek). Each test was repeated three times.
resulting values were calculated as a cell growth ratio (%) compared to a control. Then, the graphs were drawn and the […] values were calculated by using a program, GraphPad Prism version 5.0.

In general, GI50 refers to the concentration at which growth is held to half of that of the control. On to `C=CC(=O)Nc1cc(Nc2cc(N3OCC[C@@H]3c3cccc(C(F)(F)F)c3F)ncn2)c(OC)cc1N1CCC(N2CCN(C3CC3)[C@@H](C)C2)CC1` [Compound 67], for which the GI50 lay within 50 to 500 nM.

On to `C=CC(=O)Nc1cc(Nc2cc(N3OCC[C@@H]3c3ccc(F)c(C(F)(F)F)c3)ncn2)c(OC)cc1N1CCN(CC)CC1` [Compound 38], for which the GI50 was less than 50 nM.

In the case of `C=CC(=O)Nc1cc(Nc2cc(N3OCC[C@@H]3c3ccc(F)c(C(F)(F)F)c3)ncn2)c(OC)cc1N1CCC(N(C)C)CC1` [Compound 39], the GI50 was less than 50 nM.

Take `C=CC(=O)Nc1cc(Nc2cc(N3OCC[C@@H]3c3cccc(C(F)(F)F)c3F)ncn2)c(OC)cc1N1CCC(N2CCCN(C3CC3)CC2)CC1` [Compound 77]: the GI50 is 50 to 500 nM.

As to `C=CC(=O)Nc1cc(Nc2cc(N3OCC[C@@H]3c3cc(F)cc(C(F)(F)F)c3)ncn2)c(OC)cc1N(C)CCN(C)C` [Compound 17], the GI50 was less than 50 nM.

Turning to `C=CC(=O)Nc1cc(Nc2cc(N3OCC[C@@H]3c3cccc(C(F)(F)F)c3)ncn2)c(OC)cc1N1CCC(N2CCC2)CC1` [Compound 21], the GI50 was less than 50 nM.

For the compound `C=CC(=O)Nc1cc(Nc2cc(N3OCC[C@@H]3c3cccc(C(F)(F)F)c3F)ncn2)c(OC)cc1N(C)CCNC` [Compound 87], the GI50 was less than 50 nM.

Take `C=CC(=O)Nc1cc(Nc2cc(N3OCC[C@@H]3c3cccc(C(F)(F)F)c3F)ncn2)c(OC)cc1N1CCO[C@H](C)C1` [Compound 79]: the GI50 fell in the range of 50 to 500 nM.

Turning to `C=CC(=O)Nc1cc(Nc2cc(N3OCC[C@@H]3c3cccc(C(F)(F)F)c3)ncn2)c(OC)cc1N1CCN(C2CC2)[C@H](C)C1` [Compound 9], the GI50 was 50 to 500 nM.

With `C=CC(=O)Nc1cc(Nc2cc(N3OCC[C@@H]3c3ccc(F)c(C(F)(F)F)c3)ncn2)c(OC)cc1N1CCOCC1` [Compound 63], the GI50 fell in the range of 50 to 500 nM.

As for `C=CC(=O)Nc1cc(Nc2cc(N3OCC[C@@H]3c3cc(F)cc(C(F)(F)F)c3)ncn2)c(OC)cc1N1CCC(N2CCCC2)CC1` [Compound 18], the GI50 was less than 50 nM.

Take `C=CC(=O)Nc1cc(Nc2cc(N3OCC[C@@H]3c3cccc(C(F)(F)F)c3F)ncn2)c(OC)cc1N1CCC(N2CCN(C(C)C)CC2)CC1` [Compound 78]: the GI50 was less than 50 nM.

For `C=CC(=O)Nc1cc(Nc2nccc(N3OCC[C@@H]3c3ccccc3)n2)c(OC)cc1N(C)CCN(C)C` [Compound 108], the GI50 was 50 to 500 nM.

For the compound `C=CC(=O)Nc1cc(Nc2cc(N3OCC[C@@H]3c3cccc(C(F)(F)F)c3F)ncn2)c(OC)cc1N1CCN(C)[C@H](C)C1` [Compound 80], the GI50 was less than 50 nM.

As for `C=CC(=O)Nc1cc(Nc2cc(N3OCC[C@@H]3c3cccc(C(F)(F)F)c3F)ncn2)c(OC)cc1N1CCC(N2CCNCC2)CC1` [Compound 97], the GI50 is less than 50 nM.

For the compound `C=CC(=O)Nc1cc(Nc2cc(N3OCC[C@@H]3c3cccc(C(F)(F)F)c3)ncn2)c(OC)cc1N1CCC(N2CCCC2)CC1` [Compound 22], the GI50 is less than 50 nM.

Consider `C=CC(=O)Nc1cc(Nc2cc(N3OCC[C@@H]3c3ccc(F)c(C(F)(F)F)c3)ncn2)c(OC)cc1N1CCO[C@H](C)C1` [Compound 57], for which the GI50 fell in the range of 50 to 500 nM.

In the case of `C=CCN1CCN(c2cc(OC)c(Nc3cc(N4OCC[C@@H]4c4cccc(C(F)(F)F)c4)ncn3)cc2NC(=O)C=C)CC1` [Compound 24], the GI50 was less than 50 nM.

In the case of `C=CC(=O)Nc1cc(Nc2cc(N3OCC[C@@H]3c3cccc(C(F)(F)F)c3)ncn2)c(OC)cc1N1CCCN(C)CC1` [Compound 26], the GI50 is less than 50 nM.

`C=CC(=O)Nc1cc(Nc2cc(N3OCC[C@@H]3c3cccc(C(F)(F)F)c3F)ncn2)c(OC)cc1N1CCC(N2CCOCC2)CC1` [Compound 66]: the GI50 is less than 50 nM.

For the compound `C=CC(=O)Nc1cc(Nc2cc(N3OCCC3c3cc(Cl)cc(C(F)(F)F)c3)ncn2)c(OC)cc1N1CCN(CC)CC1` (stereo not shown) [Compound 50], the GI50 lay within 50 to 500 nM.

For `C=CC(=O)Nc1cc(Nc2cc(N3OCC[C@@H]3c3ccc(F)c(C(F)(F)F)c3)ncn2)c(OC)cc1N1CC[C@@H](N(C)C)C1` [Compound 43], the GI50 was less than 50 nM.
